Experiment [1] is described as follows: Spleen index (immune organ index) in normal mice. The conditions noted are these: 0.2 mg/kg via tail vein, once a day for five days, 2 h after last dose.
Experiment [2] deals with monocytes-macrophages. The experiment can be described thus: Carbon clearance assay, phagocytosis of monocytes-macrophages in normal mice. The conditions noted are these: normal Kunming mice; 0.2 mg/kg via tail vein, once a day for five days; 2 h after last dose.
The nature of experiment [3]: Spleen index (immune organ index) in immunosuppressed mouse models. The conditions noted are these: immunosuppressed mice (dexamethasone 40 mg/kg i.p., five days); 0.2 mg/kg via tail vein, once a day for five days.
The subject of experiment [4] is Ehrlich ascites carcinoma. The experiment can be described thus: Body weight gain and spleen index of Ehrlich ascites carcinoma mice. The following applies: EAC ICR mice; 0.2 mg/kg via tail vein, one day before inoculation then 7 consecutive days.
Experiment [5] has as its system monocytes-macrophages. The conditions noted are these: immunosuppressed mice (dexamethasone 40 mg/kg i.p., five days); 0.2 mg/kg via tail vein, once a day for five days.

Where two headings read alike, the source gives them in different places. Ends that are not written are not given here.

Take RKDVY [Thymopentin, thymopentin]: the “Spleen index (%)” value in experiment [1] is reported as 0.642 ± 0.091%; in experiment [3] it was 0.546 ± 0.097^ΔΔ %; in experiment [4] it was 0.221 ± 0.036%. Also, the “Carbon clearance index K × 10^3” value with monocytes-macrophages [2] is given as 4.874 ± 0.582 ^; in the experiment with monocytes-macrophages [5], 7.773 ± 1.018^ΔΔ. Moreover, the “Body weight gain” value in experiment [4] worked out at 6.190 ± 2.087 g.

Source of the values: patent publication US11213555B2, “Intravenous injection for enhancing immune function” (priority 2016, dated 2022).
